Laboratory results published in ChEMBL document CHEMBL2321649 (Bioorg Med Chem, 2013).

Assays:
B16 = test: Cytotoxicity against mouse B16 cells after 48 hrs by MTT assay; format: functional, cell-based; settings: B16, 48 h
Tubulin = test: Inhibition of tubulin (unknown origin) assessed as inhibition of GTP-induced polymerization incubated for 45 mins prior to GTP-addition measured after 2 hrs by DAPI-staining based fluorimetric analysis; format: protein-complex assay, Homo sapiens
[1] = Antivascular activity against human EAhy926 cells assessed as rounding up morphology after 2 hrs by microscopic analysis; format: functional; settings: EA.hy 926, 2 h, read-out: MEC

IC50 (Tubulin) | SMILES | IC50 (B16) | minimal effective concentration [1]
6800 nM | COc1ccc([C@H]2C[C@H]2c2cc(OC)c(OC)c(OC)c2)cc1O | 520 nM | 0.5 µM
1300 nM | COc1cc([C@@H]2C[C@@H]2/C=C/c2ccccc2)cc(OC)c1OC | 570 nM | 0.5 µM
26300 nM | COc1ccc(C2CC2c2cc(OC)c(OC)c(OC)c2)cc1[N+](=O)[O-] (racemic) | 15400 nM | 3.13 µM
300 nM | COc1ccc([C@@H]2C[C@@H]2c2cc(OC)c(OC)c(OC)c2)cc1O | 300 nM | 0.12 µM
1000 nM | COc1ccc(C2CC2c2cc(OC)c(OC)c(OC)c2)cc1O (racemic) | 320 nM | 0.12 µM
4500 nM | COc1cc([C@H]2C[C@H]2/C=C/c2ccccc2)cc(OC)c1OC | 2740 nM | 3.13 µM
2800 nM | COc1ccc(C2CC2c2cc(OC)c(OC)c(OC)c2)cc1N (racemic) | 290 nM | 0.12 µM
1800 nM | COc1cc(C2CC2/C=C/c2ccccc2)cc(OC)c1OC (racemic) | 620 nM | 0.5 µM
 | COc1ccc(/C=C\c2cc(OC)c(OC)c(OC)c2)cc1O [COMBRETASTATIN A4] | 3 nM | 0.006 µM
